Measured values published in patent US6060257A, “Tumor rejection antigens presented by HLA-B44 molecules, and uses thereof” (Ludwig Institute for Cancer Research, priority 1996, dated 2000).

Target: T1, HLA-B*4402 (Homo sapiens, UniProt P01889, A223V/A65T/A93T/A95T/D201E/D98Y/E176V/E187L/E204Q/E69K/G107R/H137Y/K202T/L105A/L119I/N104T/N87E/Q56L/Q94N/R106L/R155S/R180D/S101N/S121R/S35A/S48T/T118I/V36M/W191S/Y140D/Y91S)
T1 construct: expressed in transfected cells; host or cells: C1R cells (MHC class I negative, EBV-transformed lymphoblastoid)
Test: Competitive assay: inhibition of CTL 159/5 lysis of C1R-B*4402 cells sensitized with SEQ ID NO: 18
Type: cell-based
Settings: C1R-B44 cells (B*4402 and B*4403 transfectants)

Gin Glu Glu Gly Pro Ser Thr Phe [SEQ ID NO: 20]
inhibition of lysis of C1R-B44 cells (indicates binding to HLA-B44 molecules): did inhibit lysis
